Test results reported in ChEMBL document CHEMBL1201862, “PubChem BioAssay data set” (2004).
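Cells were grown in 96-well plates and exposed to each compound for 48 hours at five concentrations; endpoints were interpolated linearly between bracketing concentrations, or set to the highest concentration if not reached. GI50 marks 50% less growth.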 Activity calls are given as the source filed them. Rule as the data show it: active = GI50 up to about 1.1 µM and inactive = higher.

Tests used:
Assay in all cases: NCI tumour cell line growth inhibition, 48 h
[1] = test system: BT-549
[2] = test system: MDA-N
[3] = test system: EKVX
[4] = test system: A549
[5] = test system: OVCAR-5
[6] = test system: HL-60
[7] = test system: Hs-578T
[8] = test system: HT-29
[9] = test system: U-251
[10] = test system: SK-MEL-2
[11] = test system: SR
[12] = test system: MCF7
[13] = test system: 786-0
[14] = test system: HOP-92
[15] = test system: IGROV-1
[16] = test system: SK-OV-3
[17] = test system: HCT-15
[18] = test system: KM12
[19] = test system: SK-MEL-28
[20] = test system: Malme-3M
[21] = test system: COLO 205
[22] = test system: UO-31
[23] = test system: NCI/ADR-RES
[24] = test system: MOLT-4
[25] = test system: SF-268
[26] = test system: PC-3
[27] = test system: MDA-MB-435
[28] = test system: HOP-62
[29] = test system: SF-539
[30] = test system: SK-MEL-5
[31] = test system: TK-10
[32] = test system: OVCAR-8
[33] = test system: UACC-62
[34] = test system: RPMI-8226
[35] = test system: HCT-116
[36] = test system: SN12C
[37] = test system: NCI-H460
[38] = test system: SF-295
[39] = test system: CAKI-1
[40] = test system: CCRF-CEM
[41] = test system: M14
[42] = test system: NCI-H23
[43] = test system: A498
[44] = test system: NCI-H522
[45] = test system: ACHN
[46] = test system: SW-620
[47] = test system: K562
[48] = test system: OVCAR-4
[49] = test system: SNB-19
[50] = test system: NCI-H226
[51] = test system: OVCAR-3
[52] = test system: LOX IMVI
[53] = test system: HCC 2998
[54] = test system: UACC-257
[55] = test system: MDA-MB-231
[56] = test system: SNB-75
[57] = test system: T47D
[58] = test system: DU-145

O=C(c1ccccc1)c1cc(-c2ccccc2)c(-c2ccccc2)[nH]c(=O)c1=O
GI50 [1]: 22.5 µM (inactive)
GI50 [2]: 38.5 µM (inactive)
GI50 [3]: 33.7 µM (inactive)
GI50 [4]: 41.7 µM (inactive)
GI50 [5]: 54.2 µM (inactive)
GI50 [6]: 15.7 µM (inactive)
GI50 [7]: 40.9 µM (inactive)
GI50 [8]: 36.6 µM (inactive)
GI50 [9]: 37.8 µM (inactive)
GI50 [10]: 24.3 µM (inactive)
GI50 [11]: 24.1 µM (inactive)
GI50 [12]: 31.5 µM (inactive)
GI50 [13]: > 100 µM (inactive)
GI50 [14]: 41.1 µM (inactive)
GI50 [15]: 60 µM (inactive)
GI50 [16]: > 100 µM (inactive)
GI50 [17]: 28.3 µM
GI50 [18]: 35.8 µM (inactive)
GI50 [19]: 42.2 µM (inactive)
GI50 [20]: 49.3 µM (inactive)
GI50 [21]: 27.2 µM (inactive)
GI50 [22]: 35.8 µM (inactive)
GI50 [23]: 33.7 µM (inactive)
GI50 [24]: 24.2 µM (inactive)
GI50 [25]: 50.5 µM (inactive)
GI50 [26]: 36.6 µM (inactive)
GI50 [27]: 30.5 µM (inactive)
GI50 [28]: 59.6 µM (inactive)
GI50 [29]: 31.3 µM (inactive)
GI50 [30]: 31.6 µM (inactive)
GI50 [31]: 56.2 µM (inactive)
GI50 [32]: 37.4 µM (inactive)
GI50 [33]: 25.1 µM (inactive)
GI50 [34]: 23.9 µM (inactive)
GI50 [35]: 35.2 µM (inactive)
GI50 [36]: 35.2 µM (inactive)
GI50 [37]: 34 µM (inactive)
GI50 [38]: 40.7 µM (inactive)
GI50 [39]: 30.9 µM (inactive)
GI50 [40]: 15.2 µM (inactive)
GI50 [41]: 41.2 µM (inactive)
GI50 [42]: 19 µM (inactive)
GI50 [43]: 77.4 µM (inactive)
GI50 [44]: 22.1 µM (inactive)
GI50 [45]: 63.5 µM (inactive)
GI50 [46]: 37.2 µM (inactive)
GI50 [47]: 32.6 µM (inactive)
GI50 [48]: 33.7 µM (inactive)
GI50 [49]: 64.6 µM (inactive)
GI50 [50]: 43.4 µM (inactive)
GI50 [51]: 35.6 µM (inactive)
GI50 [52]: 34.5 µM (inactive)
GI50 [53]: 26.9 µM (inactive)
GI50 [54]: 41.5 µM (inactive)
GI50 [55]: > 100 µM (inactive)

COc1cccc(-c2cc(O)c3cc(N)ccc3n2)c1
GI50 [1]: 5.81 µM (inactive)
GI50 [3]: > 100 µM (inactive)
GI50 [4]: 5.94 µM (inactive)
GI50 [5]: > 100 µM (inactive)
GI50 [7]: 2.09 µM (inactive)
GI50 [8]: 3.22 µM (inactive)
GI50 [12]: 3.94 µM (inactive)
GI50 [13]: 4.05 µM (inactive)
GI50 [14]: 3.44 µM (inactive)
GI50 [15]: 5.06 µM (inactive)
GI50 [16]: 2.3 µM (inactive)
GI50 [17]: 3.47 µM
GI50 [18]: 3.62 µM (inactive)
GI50 [19]: 7.62 µM (inactive)
GI50 [20]: 2.14 µM (inactive)
GI50 [21]: 4.27 µM (inactive)
GI50 [23]: 2.54 µM (inactive)
GI50 [24]: 3.71 µM (inactive)
GI50 [26]: 2.09 µM (inactive)
GI50 [27]: 0.834 µM (active)
GI50 [28]: 5.92 µM (inactive)
GI50 [29]: 2.35 µM (inactive)
GI50 [30]: 2.88 µM (inactive)
GI50 [31]: 6.79 µM (inactive)
GI50 [32]: 9.16 µM (inactive)
GI50 [33]: 2.92 µM (inactive)
GI50 [36]: 7.05 µM (inactive)
GI50 [37]: 3.75 µM (inactive)
GI50 [40]: 2.25 µM (inactive)
GI50 [41]: 4.63 µM (inactive)
GI50 [42]: 9.91 µM (inactive)
GI50 [44]: 2.39 µM (inactive)
GI50 [45]: 7.13 µM (inactive)
GI50 [56]: 2.75 µM (inactive)
GI50 [46]: 1.94 µM (inactive)
GI50 [49]: 5.26 µM (inactive)
GI50 [53]: 6.55 µM (inactive)
GI50 [55]: 25.2 µM (inactive)

C[C@H]1C[C@H]2[C@@H]3C(C)(C)O[C@]4(O)C(=O)[C@]5(O)[C@@H](C)CC[C@H]1[C@]25C(=O)[C@]34C
GI50 [2]: 37.7 µM (inactive)
GI50 [4]: 41.6 µM (inactive)
GI50 [5]: 65.2 µM (inactive)
GI50 [6]: 29.4 µM (inactive)
GI50 [57]: 25.2 µM (inactive)
GI50 [7]: 37.5 µM (inactive)
GI50 [8]: 26 µM (inactive)
GI50 [9]: 60.3 µM (inactive)
GI50 [10]: 31.3 µM (inactive)
GI50 [11]: 40.1 µM (inactive)
GI50 [12]: 41.3 µM (inactive)
GI50 [13]: 75.5 µM (inactive)
GI50 [14]: 8.61 µM (inactive)
GI50 [15]: 64 µM (inactive)
GI50 [16]: 82.4 µM (inactive)
GI50 [17]: 33.9 µM
GI50 [18]: 35.6 µM (inactive)
GI50 [21]: 16.7 µM (inactive)
GI50 [22]: 51.6 µM (inactive)
GI50 [23]: 39.3 µM (inactive)
GI50 [24]: 37.1 µM (inactive)
GI50 [25]: 45.7 µM (inactive)
GI50 [26]: 44.1 µM (inactive)
GI50 [27]: 32.8 µM (inactive)
GI50 [58]: 48.2 µM (inactive)
GI50 [28]: 47.1 µM (inactive)
GI50 [29]: > 100 µM (inactive)
GI50 [30]: 28.4 µM (inactive)
GI50 [32]: 63.7 µM (inactive)
GI50 [33]: 43.4 µM (inactive)
GI50 [34]: 18.1 µM (inactive)
GI50 [35]: 30.7 µM (inactive)
GI50 [36]: 80.2 µM (inactive)
GI50 [37]: 30.2 µM (inactive)
GI50 [38]: 30.1 µM (inactive)
GI50 [39]: 39.4 µM (inactive)
GI50 [40]: 36.6 µM (inactive)
GI50 [41]: 71 µM (inactive)
GI50 [42]: 30.3 µM (inactive)
GI50 [43]: 35 µM (inactive)
GI50 [44]: 18 µM (inactive)
GI50 [45]: 27.3 µM (inactive)
GI50 [46]: 79.6 µM (inactive)
GI50 [47]: 25.5 µM (inactive)
GI50 [49]: > 100 µM (inactive)
GI50 [50]: 31.3 µM (inactive)
GI50 [51]: 27.4 µM (inactive)
GI50 [52]: 36.1 µM (inactive)
GI50 [54]: 48.5 µM (inactive)
GI50 [55]: > 100 µM (inactive)

CN(C)CCCNC(=O)c1cc(NC(=O)c2cc(NC(=O)[C@H]3C[C@@H]3C(=O)Nc3cc(C(=O)Nc4cc(C(=O)NCCCN(C)C)n(C)c4)n(C)c3)cn2C)cn1C
GI50 [1]: > 100 µM (inactive)
GI50 [3]: > 100 µM (inactive)
GI50 [4]: > 100 µM (inactive)
GI50 [5]: > 100 µM (inactive)
GI50 [6]: > 100 µM (inactive)
GI50 [8]: > 100 µM (inactive)
GI50 [9]: > 100 µM (inactive)
GI50 [10]: > 100 µM (inactive)
GI50 [11]: > 100 µM (inactive)
GI50 [12]: > 100 µM (inactive)
GI50 [13]: > 100 µM (inactive)
GI50 [14]: 3.24 µM (inactive)
GI50 [15]: > 100 µM (inactive)
GI50 [17]: > 100 µM
GI50 [18]: > 100 µM (inactive)
GI50 [20]: > 100 µM (inactive)
GI50 [21]: > 100 µM (inactive)
GI50 [23]: > 100 µM (inactive)
GI50 [24]: > 100 µM (inactive)
GI50 [25]: > 100 µM (inactive)
GI50 [26]: > 100 µM (inactive)
GI50 [27]: > 100 µM (inactive)
GI50 [58]: > 100 µM (inactive)
GI50 [28]: > 100 µM (inactive)
GI50 [29]: > 100 µM (inactive)
GI50 [30]: > 100 µM (inactive)
GI50 [31]: > 10 µM (inactive)
GI50 [32]: > 100 µM (inactive)
GI50 [34]: > 100 µM (inactive)
GI50 [35]: > 100 µM (inactive)
GI50 [36]: > 100 µM (inactive)
GI50 [37]: > 100 µM (inactive)
GI50 [38]: > 100 µM (inactive)
GI50 [39]: > 100 µM (inactive)
GI50 [40]: > 100 µM (inactive)
GI50 [41]: > 100 µM (inactive)
GI50 [42]: > 100 µM (inactive)
GI50 [44]: 65 µM (inactive)
GI50 [45]: > 100 µM (inactive)
GI50 [56]: > 100 µM (inactive)
GI50 [46]: > 100 µM (inactive)
GI50 [47]: > 100 µM (inactive)
GI50 [48]: > 100 µM (inactive)
GI50 [49]: > 100 µM (inactive)
GI50 [50]: > 100 µM (inactive)
GI50 [52]: > 100 µM (inactive)
GI50 [53]: > 100 µM (inactive)
GI50 [54]: > 100 µM (inactive)
GI50 [55]: > 100 µM (inactive)
